In patent US8962602B2, “Anticancer steroidal lactones unsaturated in position 7 (8)” (Pharma Mar, S.A., priority 2010, dated 2015):
“And” between values parts separate entries of the source, which are not always exact repeats. Equal values may be shown once. Read-outs that look alike come from different tables or passages of the source.

What was measured:
Test in all cases: Cytotoxicity assay, SRB colorimetric assay
Assay type in all cases: cell-based
[1] = tested on: A549; conditions: for TGI / GI50: A549 lung carcinoma (NSCLC), 72 hours treatment; for TGI: total cell growth inhibition (cytostatic effect); for GI50 / CC50: Homo sapiens, A549, 72 h; for GI50: 50% cell growth inhibition; for CC50: read-out: LC50, A549 lung carcinoma (NSCLC), 72 hours treatment, 50% net cell killing (cytotoxic effect)
Text: (§1) The aim of this assay is to evaluate the in vitro cytostatic (ability to delay or arrest tumor cell growth) or cytotoxic (ability to kill tumor cells) activity of the samples being tested.
(§2) A colorimetric assay, using sulforhodamine B (SRB) reaction has been adapted to provide a quantitative measurement of cell growth and viability (following the technique described by Skehan et al. J. Natl. Cancer Inst. 1990, 82, 1107-1112).
(§3) This form of assay employs SBS-standard 96-well cell culture microplates (Faircloth et al. Methods in Cell Science, 1988, 11(4), 201-205; Mosmann et al, Journal of Immunological Methods, 1983, 65(1-2), 55-63). All the cell lines used in this study were obtained from the American Type Culture Collection (ATCC) and derive from different types of human cancer.
(§4) Cells were maintained in Dulbecco's Modified Eagle Medium (DMEM) supplemented with 10% Fetal Bovine Serum (FBS), 2 mM L-glutamine, 100 U/mL penicillin and 100 U/mL streptomycin at 37° C., 5% CO2 and 98% humidity. For the experiments, cells were harvested from subconfluent cultures using trypsinization and resuspended in fresh medium before counting and plating.
(§5) Cells were seeded in 96 well microtiter plates, at 5×10^3 cells per well in aliquots of 150 μL, and allowed to attach to the plate surface for 18 hours (overnight) in drug free medium. After that, one control (untreated) plate of each cell line was fixed (as described below) and used for time zero reference value. Culture plates were then treated with test compounds (50 μL aliquots of 4× stock solutions in complete culture medium plus 4% DMSO) using ten serial dilutions (concentrations ranging from 10 to 0.00262 μg/mL) and triplicate cultures (1% final concentration of DMSO). After 72 hours treatment, the antitumor effect was measured by using the SRB methodology: Briefly, cells were washed twice with PBS, fixed for 15 min in 1% glutaraldehyde solution at room temperature, rinsed twice in PBS, and stained in 0.4% SRB solution for 30 min at room temperature. Cells were then rinsed several times with 1% acetic acid solution and air-dried at room temperature. SRB was then extracted in 10 mM trizma base solution and the absorbance measured in an automated spectrophotometric plate reader at 490 nm. Effects on cell growth and survival were estimated by applying the NCl algorithm (Boyd M R and Paull K D. Drug Dev. Res. 1995, 34, 91-104).
(§6) Using the mean±SD of triplicate cultures, a dose-response curve was automatically generated using nonlinear regression analysis. Three reference parameters were calculated (NCI algorithm) by automatic interpolation: GI50=compound concentration that produces 50% cell growth inhibition, as compared to control cultures; TGI=total cell growth inhibition (cytostatic effect), as compared to control cultures, and LC50=compound concentration that produces 50% net cell killing (cytotoxic effect).

[2] = tested on: HT29; conditions: for TGI: total cell growth inhibition (cytostatic effect); for GI50: 50% cell growth inhibition
Text: as §1, §2, §3, §4, §5, §6

[3] = tested on: MDA-MB-231; conditions: for GI50: 50% cell growth inhibition; for TGI: total cell growth inhibition (cytostatic effect)
Text: as §1, §2, §3, §4, §5, §6

[4] = HT29 colorectal adenocarcinoma, 72 hours treatment
[5] = Homo sapiens, HT-29, 72 h, HT29 colorectal adenocarcinoma, 72 hours treatment
[6] = Homo sapiens, HT-29, 72 h, read-out: LC50, HT29 colorectal adenocarcinoma, 72 hours treatment, 50% net cell killing (cytotoxic effect)
[7] = Homo sapiens, MDA-MB-231, 72 h, MDA-MB-231 breast adenocarcinoma, 72 hours treatment
[8] = Homo sapiens, MDA-MB-231, 72 h, read-out: LC50, MDA-MB-231 breast adenocarcinoma, 72 hours treatment, 50% net cell killing (cytotoxic effect)
[9] = MDA-MB-231 breast adenocarcinoma, 72 hours treatment

Compound | TGI [1] | GI50 [1] | CC50 [1] | TGI [2, 4] | GI50 [2, 5] | LC50 (50% net cell killing) [2, 6] | GI50 [3, 7] | CC50 [3, 8] | TGI [3, 9] | GI50 [2, 4] | LC50 (50% net cell killing) ([2]; read-out: LC50, HT29 colorectal adenocarcinoma, 72 hours treatment, 50% net cell killing (cytotoxic effect)) | GI50 [3, 9] | CC50 ([3]; read-out: LC50, MDA-MB-231 breast adenocarcinoma, 72 hours treatment, 50% net cell killing (cytotoxic effect))
CO[C@H]1C=C[C@]2(C)[C@H]3C[C@@H](O)[C@]4(C)[C@@H](c5ccc(=O)oc5)C(Cl)(Cl)C[C@]4(O)C3=CC[C@H]2C1(C)C [Aegomycin D] | 1.28E−8 Molar | 8.64 nM | 18.3 nM | 1.35E−7 Molar | 31.4 nM | 1450 nM | 64.8 nM | 173 nM | 9.81E−8 Molar |  |  |  | 
CO[C@H]1[C@H]2O[C@H]2[C@]2(C=O)[C@H]3CC[C@]4(C)[C@@H](c5ccc(=O)oc5)C(Cl)(Cl)C[C@]4(O)C3=CC[C@H]2C1(C)C [Aegomycin A] | 4.39E−9 Molar | 3.82 nM | 5.35 nM | 3.25E−8 Molar | 10.5 nM | 115 nM | 19.1 nM | 61.1 nM | 3.63E−8 Molar |  |  |  | 
CC1(C)C(=O)C=C[C@]2(C)[C@H]3CC[C@]4(C)[C@@H](c5ccc(=O)oc5)[C@@H](Cl)C[C@]4(O)C3=CC[C@@H]12 [Aegomycin F] |  |  |  | 4.06E−7 Molar and 2.03E−7 Molar | 65.5 nM | 3160 nM | 88 nM | 948 nM | 2.71E−7 Molar and 2.03E−7 Molar | 36.5 nM | 4860 nM | 81.1 nM | 608 nM
CC1(C)C(=O)C=C[C@]2(C)[C@H]3CC[C@]4(C)[C@@H](c5ccc(=O)oc5)C(Cl)(Cl)C[C@]4(O)C3=CC[C@@H]12 [Aegomycin C] | 1.72E−8 Molar | 7.54 nM | 41.9 nM | 1.05E−7 Molar | 9.84 nM | > 20900 nM | 62.8 nM | 691 nM | 1.97E−7 Molar |  |  |  | 
CO[C@H]1C=C[C@]2(C)[C@H]3CC[C@]4(C)[C@@H](c5ccc(=O)oc5)[C@@H](Cl)C[C@]4(O)C3=CC[C@H]2C1(C)C [Aegomycin G] | 6.32E−8 Molar | 39.2 nM | 111 nM | 6.75E−7 Molar | 146 nM | 3920 nM | 170 nM | 1290 nM | 4.36E−7 Molar |  |  |  | 
CO[C@H]1C=C[C@]2(C)[C@H]3CC[C@]4(C)[C@@H](c5ccc(=O)oc5)C(Cl)(Cl)C[C@]4(O)C3=CC[C@H]2C1(C)C [Aegomycin E] | 5.67E−8 Molar | 42.6 nM | 75 nM | 4.86E−7 Molar | 118 nM | 5270 nM | 197 nM | 750 nM | 3.65E−7 Molar |  |  |  | 
CO[C@H]1[C@H]2O[C@H]2[C@]2(CO)[C@H]3CC[C@]4(C)[C@@H](c5ccc(=O)oc5)C(Cl)(Cl)C[C@]4(O)C3=CC[C@H]2C1(C)C [Aegomycin B] | 7.61E−9 Molar | 5.9 nM | 11.4 nM | 2.28E−7 Molar | 30.4 nM | 3040 nM | 76.1 nM | 381 nM | 1.67E−7 Molar |  |  |  | 
